The values that follow are results of earlier work, collected in patent US20150182479A1, “Method of delivering agmatine for medical treatment” (TOPAZ VENTURES, INC., priority 2013, published 2015).

One series has as its system mouse. Particulars: FST; for effect on antidepressant like effect of fluoxetine or paroxetine: agonists ip, agmatine-raising drugs icv; for effect of prior administration on antidepressant like effect of paroxetine and fluoxetine: paroxetine 10 mg/kg ip, fluoxetine 20 mg/kg ip.
The next series deals with mice. Particulars: for effect on morphine analgesia: agmatine 10 mg/kg i.p. 30 min before morphine s.c.; for effect on oxycodone analgesia: agmatine 10 mg/kg i.p. 30 min before oxycodone s.c.
Another series has as its system thermal nociception. Particulars: for effect of antagonist on response-latency enhancement by WIN 55212-2: WIN 55212-2 2 mg/kg, SR 141716A 5 mg/kg i.p., idazoxan 2 and 5 mg/kg, yohimbine 5 mg/kg.

For `c1ccc2oc(C3=NCCN3)cc2c1` [2-(2-benzofuranyl)-2-imidazoline], in the series with mouse, the “effect on antidepressant like effect of fluoxetine or paroxetine” value (from here on “effect on antidepressant like effect”) is reported as “potentiated”.

As for `Cc1noc(NS(=O)(=O)c2cccc3c(N(C)C)cccc23)c1C` [BMS 182874], the “tail-flick latency, drug alone” value in the series with mice (360-min observation period) is “did not produce any change”. Moreover, in the series with mice (tail-flick, mice), the “effect of pretreatment on analgesic effect produced by agmatine alone” value is listed as “did not increase”; the “effect on agmatine-induced potentiation of morphine and oxycodone analgesia” value (“effect on agmatine-induced potentiation” for short) is reported as “not altered”; the “effect on morphine analgesia” value was “potentiates”; the “effect on oxycodone analgesia” value was “potentiates”.

With `N=C(N)NCCC[C@@H](N)C(=O)O` [D-arginine], the “effect of prior administration on antidepressant like effect of paroxetine and fluoxetine” value (“effect of prior administration” below) in the series with mouse is “blocked”.

With `N=C(N)NCCC[C@H](N)C(=O)O` [L-arginine], the “effect on antidepressant like effect” value in the series with mouse is “potentiated”.

Turning to `Cc1c(C(=O)NN2CCCCC2)nn(-c2ccc(Cl)cc2Cl)c1-c1ccc(Cl)cc1` [SR 141716A], the “effect of antagonist on response-latency enhancement by WIN 55212-2” value (“effect of antagonist … by WIN 55212-2” below) in the series on thermal nociception was “blocked”.

Regarding `N=C(N)NN` [aminoguanidine], the “effect on antidepressant like effect” value with mouse is given as “potentiated”.

In the case of `NC(N)=NCCCCN=C(N)N` [arcaine], the “effect on antidepressant like effect” value in the series with mouse is on record as “potentiated”.

As for `Clc1cccc(Cl)c1N=C1NCCN1` [clonidine], in the series with mice (tail-flick, mice), the “effect on morphine analgesia” value is “potentiate” and the “effect on oxycodone analgesia” value is on record as “potentiate”. The “effect on antidepressant like effect” value in the series on mouse is recorded as “potentiated”.

On to `CCC1(C2=NCCN2)Cc2ccccc2O1` (stereo not drawn) [efaroxan], for which the “effect of prior administration” value in the series on mouse is “blocked”.

For the compound `c1ccc2c(c1)OCC(C1=NCCN1)O2` (stereo not drawn) [idazoxan], in the series on mice (tail-flick, mice), the “effect on BMS 182874-induced potentiation of oxycodone analgesia” value is “blocked”; the “effect on agmatine-induced potentiation” value is on record as “blocked”. For the same compound, the “effect of antagonist on response-latency enhancement by combination of WIN 55212-2 and agmatine” value in the series on thermal nociception (WIN 55212-2 2 mg/kg and agmatine, yohimbine 5 mg/kg i.p.) is “blocked”. For the same compound, the “effect of antagonist … by WIN 55212-2” value in the series with thermal nociception is reported as “attenuated”. For the same compound, the “effect of prior administration” value with mouse is “blocked”.

Consider `COc1nc(C)nc(Cl)c1N=C1NCCN1` [moxonidine], for which, in the series on mouse, the “effect on antidepressant like effect” value was “potentiated”.

With `COC(=O)[C@@H]1[C@H]2C[C@H]3c4[nH]c5ccccc5c4CCN3C[C@@H]2CC[C@@H]1O` [yohimbine], in the series with mice (tail-flick, mice), the “effect on BMS 182874-induced potentiation of morphine analgesia” value is on record as “not affected”; the “effect on BMS 182874-induced potentiation of oxycodone analgesia” value is on record as “not affected”; the “effect on agmatine-induced potentiation” value is listed as “blocked”. Further, the “effect of antagonist … by WIN 55212-2” value with thermal nociception is “not affected”.

For “(−)-cis 3-(2-hydroxy-4-(1,1-dimethylheptyl)phenyl)-trans-4-(3-hydroxypropyl) cyclohexanol [CP55,940]”, the “hot-plate response latency, drug given alone” value in the series on thermal nociception (i.p., WIN 55212-2 or CP55,940 1, 2 or 3 mg/kg, agmatine 50 or 100 mg/kg) is “increased”.

Turning to difluoromethyl ornithine, in the series on mouse, the “effect on antidepressant like effect” value is “potentiated”.
